Data: patent US20130053320A1, “TREATMENT OF ANEMIA BY ADNP AND ADNF POLYPEPTIDES” (Ramot at Tel-Aviv University, Ltd., priority 2010, published 2013)

How the values were obtained:
MEL cells [1] = assay: MEL cell erythroid differentiation, marker mRNA by Real-Time PCR; format: cell-based, mouse
Description: MEL cells were a gift from Prof. N. Shaklai (Tel Aviv University, Israel). Cells were cultured at 37° C. in 5% CO2 incubator in RPMI-1640 medium supplemented with 10% fetal calf serum, 2 mM L-glutamine, 100 U/ml penicillin, 0.1 mg/ml streptomycin and 12.5 U/ml nystatin (Biological Industries, Beit Haemek, Israel). To induce erythroid differentiation, 2% DMSO (v/v, Sigma, St. Louis, Mo., USA) was added for 4 days.
2 ADNP shRNA clones (sh68 and sh71, Sigma) were used for mouse ADNP (NM_009628) silencing in MEL cells, as before (Mandel et al., 2008, J Mol Neurosci 35, 127-141). […] For mouse ADNP2 (NM_175028) silencing, a mixture of 2 stealth small interfering RNA (siRNA) duplexes (Invitrogen, Carlsbad, Calif., USA) was used.
Transfections were performed using Lipofectamine-2000 (Invitrogen). 6 hours after transfection, 2% DMSO was added to the cells for 4 days in order to induce erythroid differentiation. On the 4th day, cells were harvested, RNA was extracted and expression levels of ADNP, ADNP2, band3, β-globin, Brg1 and c-kit were evaluated.
Total RNA from MEL cells was extracted by the RNeasy Plus Mini Kit (Qiagen, Hilden, Germany). RNA integrity was determined by fractionation on 1% agarose gel and staining with ethidium bromide. RNA quantity (OD260) was determined by NanoDrop spectrophotometer (NanoDrop Technologies, Wilmington, Del., USA).
Samples with the same amount of total RNA were used to synthesize single-strand cDNA employing the Applied Biosystems High Capacity cDNA Reverse Transcription Kit (Applied Biosystems, Foster City, Calif., USA) and random hexamers primers as before (Dresner et al., 2010, supra). Primer pairs (see Table 1) were designed using the primer 3 web interface (website: frodo.wi.mit.edu/primer3/) and synthesized by Sigma-Genosys (The Woodlands, Tex., USA). To avoid amplification of contaminating genomic DNA, primers were designed to exon-exon junction. […]

MEL cells [2] = assay: Growth of MEL cells during differentiation (viable cell counts); format: cell-based, mouse; settings: 2% DMSO vs ND cells
Description: FIG. 4: ADNP and ADNP2 are required for mouse erythroid differentiation. (A-C) MEL cells were differentiated with 2% DMSO for 4 days and compared to non-differentiated (ND) cells incubated for the same time period. Results are means±S.E.M analyzed by student's t-test (*p<0.05, **p<0.01, ***p<0.001). (A) The picture depicts the red pellet (Hb) of differentiated (D) cells compared to the white pellet of ND cells. (B) mRNA expression levels of β-globin, band3 and c-kit in D versus ND MEL cells. 4 experiments were performed, each in duplicates. Data is presented in logarithmic scale as fold change from the expression level in the ND state. (C) Growth curves of D and ND MEL cells. Results are % of the number of cells at plating (100%). […] Real-Time PCR analysis determined ADNP, ADNP2, β-globin, band3 and c-kit expression levels. […] Results, means±S.E.M were analyzed using student's t-test (*p<0.05, **p<0.01, ***p<0.001, relative to control cells, transfected with non-specific shRNA/siRNA sequences). (F+G) MEL cells were transfected with ADNP/ADNP2 shRNA/siRNA respectively, and viable cells were counted every 24 hrs during 4 days differentiation process with 2% DMSO. […] Results are presented as % from the number of cells at plating (100%), and analyzed using student's t-test (**p<0.01, relative to number of control cells, transfected with non-specific siRNA or shRNA sequences). […]

zebrafish embryos [3] = assay: Morpholino knockdown in zebrafish embryos, observation of blood and morphology; format: in vivo; settings: for cardiac edema / smaller head and eyes: MO-injected embryos; for morphology and development: MO-injected embryos vs control; for smaller head and eyes: FIG. 2C; for blood colour: at 72 hpf, vs red blood of control embryos; for blood cells in circulation: starting from 28 hpf, vs control-MO injected embryos
Description: (§1) Gene knockdown experiments were performed using morpholino-modified antisense oligonucleotides (MO's, Gene Tools, Philomath, Oreg., USA). MO's were injected into wild type embryos, immediately after fertilization (2 nl, 1-2 mM). This was followed by a daily monitoring of the embryos for 10 days. MO's sequences were chosen through the Gene Tools oligonucleotide design service. A splicing MO, directed to intron3-exon4 boundary, was designed to block adnp1a (adnp1a-MO, 5′-[…]-3′). The efficiency of the adnp1a splicing MO was evaluated by RT-PCR. Translation MO's were designed to block adnp1b, adnp2a and adnp2b (adnp1 b-MO, 5′-[…]-3′; adnp2a-MO: 5′-[…]-3′; adnp2b-MO: 5′-[…]-3′). BLAST analysis was performed to verify that the MO's were not predicted to bind gene sequences other than their targets, and that their target sequence was not conserved among the other zebrafish adnp1 and adnp2 genes. Gene-Tools standard control-MO, which has not been reported to have other targets or generate any phenotypes, was used as a negative control (5-[…]-3′). Injections were repeated in at least 4 independent experiments for each MO.
For adnp2a-MO injected embryos, blood circulation was evaluated at 48 hpf. For the 3 other MO's, circulation was examined at 72 hpf when red blood is easily seen. Based on observation, embryos were divided to have normal blood cells, no blood cells or hypochromic and/or fewer blood cells.

zebrafish embryos [4] = assay: O-dianisidine staining of Hb in whole MO-injected embryos; format: in vivo; settings: for Hemoglobin (Hb) staining, Hb content: 48 hpf and 72 hpf; for O-dianisidine staining: 48 hpf, vs control embryos (legend FIG. 2F)
Description: as §1
Hb activity was detected in whole embryos by performing o-dianisidine staining as described (Iuchi and Yamamoto, 1983, J Exp Zool 226, 409-417).

zebrafish embryos [5] = assay: Whole-mount in situ hybridization (WMISH) of hematopoietic markers in MO-injected embryos; format: in vivo
Description: as §1
Transcripts of sci (NM_213237), lmo2 (NM_131111), gata1 (NM_131234), band3 (NM_198338), embryonic α-globin 1 (NM_182940), lys-C(NM_139180), l-plastin (NM_131320), ikaros (NM_130986), c-myb (NM_131266), irx7 (NM_131881), flk1 (NM_131472), cmlc2 (NM_131329), adnp1a (NM_001080015), adnp1b (XM—002666474), adnp2a (NM_001098265) and adnp2b (NM_001080013) were detected by WMISH using digoxygenin (DIG) labeled antisense RNA probes at a concentration of 1 ng/μl. Transcription of RNA probes was performed from pGEM-T Easy plasmids linearized before the coding sequence, using SP6 or T7 RNA polymerases (DIG RNA labeling kit, Roche Applied Science, Penzberg, Germany). Embryos at different developmental stages were fixed overnight in 4% paraformaldehyde and stored in 100% methanol. WMISH was performed as describe (Ziv et al., 2005, supra). Fixed embryos were then placed in 70% glycerol for observation and photography using a dissecting stereoscope (SZX12, Olympus) equipped with digital camera (DP70, Olympus). In each experiment, embryos hybridized with the same probe were stained under the same conditions and for the same time period using identical microscopic and camera settings.

[6] = 2% DMSO for 4 days vs non-differentiated cells

| Compound | cardiac edema (zebrafish embryos [3]) | morphology and development (zebrafish embryos [3]) | smaller head and eyes (zebrafish embryos [3]) | blood colour (zebrafish embryos [3]) | blood cells in circulation (zebrafish embryos [3]) | Hemoglobin (Hb) staining, Hb content (zebrafish embryos [4]) | O-dianisidine staining (zebrafish embryos [4]) | also measured |
| --- | --- | --- | --- | --- | --- | --- | --- | --- |
| C[S+](C)[O-] [DMSO] |  |  |  |  |  |  |  | c-kit expression lower (MEL cells [1]; 2% DMSO for 4 days vs ND cells): 200 times; increase of band3 mRNA expression (MEL cells [1]; [6]): 10000 fold; increase of β-globin mRNA expression (MEL cells [1]; [6]): 1000 fold; growth rate of differentiating cells (MEL cells [2]): significant reduction |
| adnp1a-MO: splicing morpholino antisense oligonucleotide to intron3-exon4 boundary of zebrafish adnp1a, 5′-TAGTCCTGCAACATTTGAGAAACCA-3′ (all phosphorodiamidate morpholino (PMO)) | visible in some embryos | developmental delay, distorted tail morphology | 73 % of embryos | hypochromic | fewer blood cells in circulation | significant reduction in Hb content | Reduced staining |  |
| adnp1b-MO: translation-blocking morpholino to zebrafish adnp1b, 5′-TTGTTCACTGGGAGTTGAAACATTC-3′ (all phosphorodiamidate morpholino (PMO)) | visible in some embryos | developmental delay, distorted tail morphology | 92 % of embryos | hypochromic | fewer blood cells in circulation | significant reduction in Hb content | Reduced staining |  |
| adnp2a-MO: translation-blocking morpholino to zebrafish adnp2a, 5′-CACTGGAATCTGATACATTTTGCTC-3′ (all phosphorodiamidate morpholino (PMO)) | noticeable cardiac edema | no effect on the overall morphology |  |  |  | totally negative | No staining is visible | blood cells visible (zebrafish embryos [3]; between 33-48 hpf): no blood cells were evident; ectopic expression of band3 along the tail and yolk sinus (zebrafish embryos [5]; 4 dpf): 100 % of embryos; ectopic expression of gata1 along the tail and yolk sinus (zebrafish embryos [5]; 4 dpf): 86 % of embryos; gata1 expression normal in the ICM (zebrafish embryos [5]; 17-19 hpf): 100 % of embryos; lmo2 expression intact in the ICM (zebrafish embryos [5]; 17-19 hpf): 100 % of embryos; scl expression intact in the ICM (zebrafish embryos [5]; 17-19 hpf): 100 % of embryos; band3 expression almost absent (zebrafish embryos [5]; 28 hpf): 83 % of embryos; embryonic α-globin 1 expression significantly reduced (zebrafish embryos [5]; 28 hpf): 96 % of embryos; gata1 expression dramatically reduced (zebrafish embryos [5]; 28 hpf): 90 % of embryos; l-plastin expression intact (zebrafish embryos [5]; 28 hpf): 100 % of embryos; lys-C expression intact (zebrafish embryos [5]; 28 hpf): 100 % of embryos; band3 expression almost absent (zebrafish embryos [5]; 48 hpf): 97 % of embryos |
| adnp2b-MO: translation-blocking morpholino to zebrafish adnp2b, 5′-ACCTTTTACTGGAAACTGGTACATG-3′ (all phosphorodiamidate morpholino (PMO)) |  | no developmental delay or major morphological changes |  |  |  |  | Reduced staining | morphology (zebrafish embryos [3]; injection of higher doses of MO): distorted morphology |
